From US8124111B2, “Immunomodulation by altering sphingosine 1-phosphate lyase (SPL) activity” (Children's Hospital & Research Center at Oakland, priority 2005, dated 2012)

Experiments:
[1] = tested on: S1P; assay: S1P measurements in murine tissue after FTY720 treatment; format: in vivo
Procedure: Drug treatments and leukocyte/lymphocyte counts: Four-week old FVB or C3H mice were obtained from Charles River Laboratories (Wilmington, Mass.). Animals were maintained in a pathogen-free facility in microisolator cages. Mice were anaesthetized with isoflurane inhalation, and a single dose of FTY720 (at 1 or 3 mg/kg) or GT11 (at 1, 10 or 100 mg/kg) in sterile water was injected intraperitoneally at time zero. Blood counts were determined by Coulter counter (Coulter Instruments, Hialeah, Fla.) and by manual differential counting. Mice were euthanized by CO2 inhalation at various time points post-injection, followed by tissue harvest. All animal studies were performed in accordance with approved CHORI IACUC protocols.
S1P measurements: S1P was isolated by two-phase lipid extraction, derivatized with OPA and quantitated by HPLC essentially as described (Jiang et al, (2004) Proc Natl Acad Sci USA 101, 17825-17830; Fyrst et al., (2004) J Lipid Res 45, 54-62; Caligan et al., (2000) Anal. Biochem. 281, 36-44). All tissues were weighed prior to snap freezing in liquid nitrogen and were stored at −100° C. until processing. One nanomole of C17-S1P and PSo were added as internal standards before homogenization of tissues. Lipids were extracted with 1 ml mixture of chloroform and methanol (1:2 ratio). Samples were incubated at room temperature with sonication for 3 hours and then dried by speed vac. One ml of 0.1N NaOH in methanol was added for 1 hour at 37° C. to achieve hydrolysis. After addition of 4 ml chloroform and 4 ml 1M KCl, samples were mixed and phases separated by centrifugation. The organic phase was collected and dried for sphingosine determination. The aqueous phase was mixed with 300 μl concentrated HCl and 6 ml chloroform. The phases were separated by centrifugation, and the organic phase was collected and dried for S1P determination. All samples for S1P determination were re-dissolved in methanol. After derivation with OPA, samples were injected onto HPLC for quantification. The mobile phase was methanol:10 mM phosphate buffer (pH 7.2):1M tetrabutylammonium dihydrogen phosphate (TBAP) in water=83:16:1, v/v/v and the flow rate was 1 ml/min.
FTY720 administration minimally affects tissue SIP levels—SK is known to be responsible for S1P synthesis, whereas SPL and S1P phosphatases are responsible for S1P catabolism. Since FTY720 interacts with both SK and SPL and may potentially influence the efficiency of both S1P synthesis and degradation, the sum effect of FTY270 administration on tissue S1P levels was determined. FTY720 treatment was associated with a slight increase in thymic tissue S1P at 36 hours, followed by a return to baseline levels by 48 hours (Table 2). […] S1P levels increased somewhat more dramatically in splenic tissue after FTY720 treatment (Table 2). […] According to non-limiting theory, simultaneous inhibition of SPL may account for the stability of tissue S1P levels in response to drug treatment.

[2] = biological target: T1, SPL (Homo sapiens, UniProt O95470); assay: Inhibition of SPL activity in vitro (whole cell extracts of HEK293 cells with human SPL adenoviral construct); format: biochemical; design: expressed in transfected cells; host or cells: HEK293 infected with adenoviral vector
T1 sequence (O95470 1-568): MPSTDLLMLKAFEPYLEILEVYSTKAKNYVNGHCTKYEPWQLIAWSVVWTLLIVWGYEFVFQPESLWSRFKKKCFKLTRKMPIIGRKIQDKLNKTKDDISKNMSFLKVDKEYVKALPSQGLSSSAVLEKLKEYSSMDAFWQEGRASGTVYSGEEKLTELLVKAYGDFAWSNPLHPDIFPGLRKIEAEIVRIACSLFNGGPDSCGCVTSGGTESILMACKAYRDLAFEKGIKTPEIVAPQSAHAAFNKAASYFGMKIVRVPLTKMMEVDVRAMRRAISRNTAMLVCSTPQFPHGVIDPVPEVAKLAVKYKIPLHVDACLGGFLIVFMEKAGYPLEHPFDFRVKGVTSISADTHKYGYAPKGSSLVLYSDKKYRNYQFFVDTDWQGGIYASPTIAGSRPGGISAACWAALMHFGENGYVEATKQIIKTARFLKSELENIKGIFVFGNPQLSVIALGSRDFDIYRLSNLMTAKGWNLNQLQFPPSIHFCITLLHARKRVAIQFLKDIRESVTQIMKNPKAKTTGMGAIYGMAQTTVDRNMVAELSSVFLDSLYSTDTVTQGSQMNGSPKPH
Procedure: Various concentrations of FTY720 or its phosphorylated derivative (FTY720P) were incubated for 30 minutes on ice with whole cell extracts containing high SPL activity by virtue of a human SPL adenoviral expression construct. SPL activity was determined. (A) FTY720; (B) FTY720-P.
SPL enzyme assay: Tissues were homogenized by sonication in 9 volumes of ice-cold homogenization buffer (5 mM MOPS pH 7.5, 1 mM DTT, 1 mM EDTA, 0.25 M sucrose, and 5 micrograms/ml each chymostatin, leupeptin, pepstatin A and antipain). SPL assays were conducted using 50 micrograms protein per assay and radioactive [4,5 ^3H]DHS1P substrate, as described previously (Reiss et al., (2004) J Biol Chem 279, 1281-1290). For in vitro FTY720 and FTY720-P experiments, drug was incubated with whole cell extracts prepared from HEK293 cells infected with an adenoviral vector expressing human SPL. These extracts contained approximately 200 picomoles/mg protein/minute SPL activity. Drug was incubated with extracts for 30 minutes, followed by addition of extracts to reaction buffer and substrate to initiate the reaction.
Although treatment with FTY720 was associated with low (nanomolar) circulating drug levels, it was possible that local concentrations within cells and subcellular compartments may have been considerably higher, since FTY720 has been reported to be actively transported into cells by the actions of drug transporters that recognize long chain bases (Honig et al., (2003) J Clin Invest 111, 627-637).

[3] = 30 minutes incubation with extracts

`CCCCCCCCc1ccc(CCC(N)(CO)CO)cc1` [FTY720] was tested. Which “S1P (spleen)” value ([1]; 24 hours after FTY720) did it give?
The value was 15121.31 picomoles per gram of wet weight tissue.

And the “S1P (spleen)” value ([1]; 36 hours after FTY720)?
Its value is 18482.30 picomoles per gram of wet weight tissue.

And the “S1P (spleen)” value ([1]; 48 hours after FTY720)?
The value was 12365.84 picomoles per gram of wet weight tissue.

And the “Dihydrosphingosine-1-P (DHS1P) tissue levels” value ([1]; throughout 48 hours of treatment)?
The value was “remained stable”.

And the “S1P (thymus)” value ([1]; 24 hours after FTY720)?
Its value is 3000.69 picomoles per gram of wet weight tissue.

What about the “S1P (thymus)” value ([1]; 36 hours after FTY720) of the same compound?
The value was 3917.48 picomoles per gram of wet weight tissue.

And the “S1P (thymus)” value ([1]; 48 hours after FTY720)?
The value was 3194.45 picomoles per gram of wet weight tissue.

What about the “dose dependence of SPL inhibition in vitro” value [2] of the same compound?
The value was “dose-dependent”.

What about the “concentration of maximal effect on SPL activity in vitro” value [2, 3] of the same compound?
The value was 30 µM.

What about the “lowest concentration with effect on SPL activity in vitro” value [2, 3] of the same compound?
The value was 300 nM.
